Laboratory results published in article PMC5349910, “Discovery of BPR1K871, a quinazoline based, multi-kinase inhibitor for the treatment of AML and solid tumors: Rational design, synthesis, in vitro and in vivo evaluation” (Oncotarget, 2016).

How the values were obtained:
AURKA = molecular target: T1, AURKA (Homo sapiens, UniProt O14965); parameters: method as in PMID 20550212, PMID 23172777, PMID 24665000; details: previously reported leads 1, 2, 3; cited from earlier work
T1 construct: recombinant GST-AURKA (residues Ser123-Ser401) containing the kinase domain; GST (N); made in house; host or cells: Sf9 insect cells
T1 sequence (O14965 123-401): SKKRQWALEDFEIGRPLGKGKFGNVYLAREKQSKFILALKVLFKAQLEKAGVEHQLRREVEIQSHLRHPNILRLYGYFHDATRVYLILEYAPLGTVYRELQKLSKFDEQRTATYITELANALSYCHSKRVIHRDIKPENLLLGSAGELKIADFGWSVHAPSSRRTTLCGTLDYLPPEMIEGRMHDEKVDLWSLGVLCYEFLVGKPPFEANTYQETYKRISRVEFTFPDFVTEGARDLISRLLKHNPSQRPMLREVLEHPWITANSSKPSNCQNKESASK

FLT3 = molecular target: T2, FLT3 (Homo sapiens, UniProt P36888); parameters: method as in PMID 20550212, PMID 23172777, PMID 24665000; details: previously reported leads 1, 2, 3; cited from earlier work
T2 construct: FLT3 kinase catalytic domain (residues Tyr567-Ser993); made in house; host or cells: Sf9 insect cells (baculovirus, pBac-PAK8-GST-FLT3-KD)
T2 sequence (P36888 567-993): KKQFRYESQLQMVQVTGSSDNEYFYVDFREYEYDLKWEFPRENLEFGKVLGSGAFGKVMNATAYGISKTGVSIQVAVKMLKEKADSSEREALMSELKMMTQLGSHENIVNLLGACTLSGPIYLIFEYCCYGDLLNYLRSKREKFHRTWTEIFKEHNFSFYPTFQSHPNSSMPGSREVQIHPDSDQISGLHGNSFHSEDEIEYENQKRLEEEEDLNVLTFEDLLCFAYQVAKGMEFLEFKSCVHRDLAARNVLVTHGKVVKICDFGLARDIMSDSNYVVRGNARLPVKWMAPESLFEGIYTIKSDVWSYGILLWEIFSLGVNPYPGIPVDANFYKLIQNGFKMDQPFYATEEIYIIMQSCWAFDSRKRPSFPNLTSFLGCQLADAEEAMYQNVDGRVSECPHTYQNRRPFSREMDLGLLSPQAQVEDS

H1975 cells = test: Anti-proliferative activity, H1975; assay type: cell-based; details: Homo sapiens, NCI-H1975; NSCLC-EGFR LR/TM; supplement values ± SEM; read-out: H1975 EC50
MV4-11 cells = test: MTS cell viability assay, MV4-11; assay type: cell-based, human; details: Homo sapiens, MV4-11, 72 h, MTS, 72 h; AML-FLT3-ITD (homozygous); supplement values ± SEM; read-out: MV4-11 EC50
Method: (§1) The MTS cell viability assay was conducted as previously described. The MOLM-13 human leukemia cell line was obtained from the German Resource Centre for Biological Material (DSMZ, Braunschweig, Germany); the MV4-11 cell line was purchased from the American Type Culture Collection (ATCC, Manassas, VA, USA). […] To determine cell viability after drug treatment, assay for MOLM-13 and MV4-11 was performed by seeding 10000 cells per well in a 96-well culture plate. […] After 16 h, cells were then treated with vehicle or various concentrations of compound in medium for 72 h. Viable cells were quantified using the MTS method (Promega, Madison, WI, USA) according to the manufacturer's recommended protocol. Results were determined by measuring the absorbance at 490 nm using a plate reader (Victor2; PerkinElmer, Shelton, CT, USA).

CL-97 cells = test: Anti-proliferative activity, CL-97; assay type: cell-based, human; details: CL97; Human Lung Cancer; supplement values ± SEM; read-out: CL-97 EC50
HCT-116 cells = test: Anti-proliferative activity, HCT-116; assay type: cell-based, human; details: HCT-116; Human Colon Cancer; supplement values ± SEM; read-out: HCT-116 EC50
HCC827 cells = test: Anti-proliferative activity, HCC827; assay type: cell-based; details: Homo sapiens, HCC827; NSCLC-EGFR L858R; supplement values ± SEM; read-out: HCC827 EC50
U937 cells = test: Anti-proliferative activity, U937; assay type: cell-based; details: Homo sapiens, U-937; AML-FLT3-negative; supplement values ± SEM; read-out: U937 EC50
MOLM-13 cells = test: MTS cell viability assay, MOLM-13; assay type: cell-based, human; details: Homo sapiens, MOLM-13, 72 h, MTS, 72 h; AML-FLT3-ITD (heterozygous); supplement values ± SEM; read-out: MOLM-13 EC50
Method: as §1

H2228 cells = test: Anti-proliferative activity, H2228; assay type: cell-based; details: Homo sapiens, NCI-H2228; NSCLC-ALK; supplement values ± SEM; read-out: H2228 EC50
K562 cells = test: Anti-proliferative activity, K562; assay type: cell-based; details: Homo sapiens, K562; CML-Bcr-Abl FLT3-negative; supplement values ± SEM; read-out: K562 EC50
Mia-PaCa2 cells = test: Anti-proliferative activity, Mia-PaCa2; assay type: cell-based, human; details: Homo sapiens, MIA PaCa-2, Human Pancreatic Cancer; supplement values ± SEM
RS4-11 cells = test: Anti-proliferative activity, RS4-11; assay type: cell-based; details: Homo sapiens, RS4-11; ALL-wt-FLT3 (homozygous); supplement values ± SEM; read-out: RS4-11 EC50
Colo 205 cells = test: Anti-proliferative activity, Colo 205; assay type: cell-based; details: Homo sapiens, COLO 205, Human Colon Cancer

SMILES: O=C(Nc1cccc(Cl)c1)Nc1ncc(CCNc2ncnc3oc(-c4ccccc4)c(-c4ccccc4)c23)s1 [Compound 3]
- IC50 (AURKA): 43 nM
- IC50 (FLT3): 322 nM

SMILES: Cc1ccc(F)c(NC(=O)Nc2ccc(-c3cccc4[nH]nc(N)c34)cc2)c1 [Linifanib]
- EC50 (H1975 cells): 8850 nM
- EC50 (MV4-11 cells): 82 nM
- EC50 (CL-97 cells): > 20000 nM
- EC50 (HCT-116 cells): 8070 nM
- EC50 (HCC827 cells): 6180 nM
- EC50 (U937 cells): > 18000 nM
- EC50 (MOLM-13 cells): 38 nM
- EC50 (H2228 cells): 8780 nM
- EC50 (K562 cells): > 20000 nM
- EC50 (Mia-PaCa2 cells): 16400 nM
- EC50 (RS4-11 cells): 9200 nM

SMILES: Cc1cc(Nc2cc(N3CCN(C)CC3)nc(Sc3ccc(NC(=O)C4CC4)cc3)n2)[nH]n1 [VX-680, reference compound]
- EC50 (MV4-11 cells): 71 nM
- EC50 (HCT-116 cells): 97 nM
- EC50 (MOLM-13 cells): 69 nM
- EC50 (Colo 205 cells): 86 nM
